From ChEMBL document CHEMBL1154644 (J Med Chem, 2009)
Blank lines part the entries; values can stand above or below the compound they belong to. Activity calls are given as the source filed them. The rule behind the calls is not given here.

Experiments:
[1] = biological target: T1, Serine/threonine-protein kinase mTOR (Homo sapiens, UniProt P42345); assay: Inhibition of human mTOR by DELFIA assay; assay type: single protein
[2] = Selectivity for human mTOR over PI3Kalpha
[3] = biological target: Phosphatidylinositol 4,5-bisphosphate 3-kinase catalytic subunit alpha isoform (Homo sapiens, UniProt P42336); assay: Inhibition of PI3Kalpha by fluorescence polarization assay
[4] = Clearance in rat hepatocyte assessed as half life; assay type: ADME, cell-based, Liver; conditions: hepatocytes
[5] = biological target: T1, Serine/threonine-protein kinase mTOR; assay: Inhibition of mTOR-mediated signaling in human A498 cells assessed as inhibition of phosphorylation of AKT (S473) measured after 6 hrs by immunoblotting
[6] = Inhibition of AMPK at 2 uM
[7] = biological target: T1, Serine/threonine-protein kinase mTOR; assay: Inhibition of mTOR-mediated signaling in human A498 cells assessed as inhibition of phosphorylation of 4EBP1 (T70) measured after 6 hrs by immunoblotting; assay type: cell-based
[8] = biological target: T1, Serine/threonine-protein kinase mTOR; assay: Inhibition of mTOR-mediated signaling in PTEN-negative, PI3K/AKT-hyperactive human U87MG cells assessed as inhibition of phosphorylation of AKT(T308) measured after 6 hrs by immunoblotting; assay type: cell-based; conditions: U-87MG ATCC
[9] = biological target: T1, Serine/threonine-protein kinase mTOR; assay: Inhibition of mTOR-mediated signaling in PTEN-negative, PI3K/AKT-hyperactive human U87MG cells assessed as inhibition of PI3K/PDK1 measured after 6 hrs by immunoblotting; assay type: cell-based; conditions: U-87MG ATCC
[10] = biological target: T1, Serine/threonine-protein kinase mTOR; assay: Inhibition of mTOR-mediated signaling in human A498 cells assessed as inhibition of phosphorylation of 4EBP1 (T37/46) measured after 6 hrs by immunoblotting; assay type: cell-based
[11] = biological target: Angiopoietin-1 receptor (Homo sapiens) (UniProt Q02763); assay: Inhibition of TEK at 2 uM
[12] = biological target: Serine/threonine-protein kinase PAK 5 (Homo sapiens) (UniProt Q9P286); assay: Inhibition of PAK7 at 2 uM
[13] = biological target: Serine/threonine-protein kinase D3 (PRKD3/PKCν) (Homo sapiens) (UniProt O94806); assay: Inhibition of PRKCN at 2 uM
[14] = biological target: Tyrosine-protein kinase CSK (Homo sapiens) (UniProt P41240); assay: Inhibition of CSK at 2 uM
[15] = biological target: Tyrosine-protein kinase JAK2 (Homo sapiens) (UniProt O60674); assay: Inhibition of JAK2 at 2 uM
[16] = biological target: Dual specificity protein kinase CLK1 (Homo sapiens) (UniProt P49759); assay: Inhibition of CLK1 at 2 uM
[17] = biological target: T1, Serine/threonine-protein kinase mTOR; assay: Inhibition of mTOR-mediated signaling in PTEN-negative, PI3K/AKT-hyperactive human U87MG cells assessed as inhibition of phosphorylation of S6K1(T389) measured after 6 hrs by immunoblotting; assay type: cell-based; conditions: U-87MG ATCC
[18] = biological target: Serine/threonine-protein kinase PAK 2 (Homo sapiens) (UniProt Q13177); assay: Inhibition of PAK2 at 2 uM
[19] = biological target: T1, Serine/threonine-protein kinase mTOR; assay: Inhibition of mTOR-mediated signaling in PTEN-negative, PI3K/AKT-hyperactive human U87MG cells assessed as inhibition of phosphorylation of AKT(S473) measured after 6 hrs by immunoblotting; assay type: cell-based; conditions: U-87MG ATCC
[20] = biological target: T1, Serine/threonine-protein kinase mTOR; assay: Inhibition of mTOR-mediated signaling in human A498 cells assessed as inhibition of phosphorylation of S6K1(T389) measured after 6 hrs by immunoblotting; assay type: cell-based
[21] = biological target: BDNF/NT-3 growth factors receptor (Homo sapiens) (UniProt Q16620); assay: Inhibition of NTRK2 at 2 uM
[22] = biological target: T1, Serine/threonine-protein kinase mTOR; assay: Inhibition of human mTOR assessed as ATP competitive inhibition by Lineweaver-Burke double reciprocal dose-response plot
[23] = biological target: T2, Serine/threonine-protein kinase Sgk3 (Homo sapiens) (UniProt Q96BR1); assay: Inhibition of SGKL at 2 uM
T2 sequence (whole entry): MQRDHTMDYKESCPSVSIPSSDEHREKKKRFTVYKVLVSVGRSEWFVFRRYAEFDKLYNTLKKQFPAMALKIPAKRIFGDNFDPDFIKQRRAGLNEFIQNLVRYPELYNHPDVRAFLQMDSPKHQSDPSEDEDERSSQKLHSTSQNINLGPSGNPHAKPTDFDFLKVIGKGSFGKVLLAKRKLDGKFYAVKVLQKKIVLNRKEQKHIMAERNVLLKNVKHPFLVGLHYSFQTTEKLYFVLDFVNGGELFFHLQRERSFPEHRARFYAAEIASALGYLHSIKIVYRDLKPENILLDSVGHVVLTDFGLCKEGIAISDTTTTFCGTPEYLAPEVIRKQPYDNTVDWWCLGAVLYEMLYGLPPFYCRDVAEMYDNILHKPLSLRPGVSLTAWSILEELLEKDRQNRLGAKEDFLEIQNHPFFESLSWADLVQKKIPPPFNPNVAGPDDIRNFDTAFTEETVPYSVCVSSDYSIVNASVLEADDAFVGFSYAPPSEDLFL

[24] = biological target: Serine/threonine-protein kinase 26 (Homo sapiens) (UniProt Q9P289); assay: Inhibition of MST4 at 2 uM
[25] = biological target: T1, Serine/threonine-protein kinase mTOR; assay: Inhibition of mTOR-mediated signaling in human A498 cells assessed as inhibition of mTORC2 biomarker measured after 6 hrs by immunoblotting; assay type: cell-based
[26] = biological target: Fibroblast growth factor receptor 1 (Homo sapiens) (UniProt P11362); assay: Inhibition of FGFR1 at 2 uM
[27] = biological target: Serine/threonine-protein kinase 25 (Homo sapiens) (UniProt O00506); assay: Inhibition of STK25 at 2 uM

Phosphatidylinositol 4,5-bisphosphate 3-kinase catalytic subunit alpha isoform, sequence (P42336 whole entry, canonical isoform): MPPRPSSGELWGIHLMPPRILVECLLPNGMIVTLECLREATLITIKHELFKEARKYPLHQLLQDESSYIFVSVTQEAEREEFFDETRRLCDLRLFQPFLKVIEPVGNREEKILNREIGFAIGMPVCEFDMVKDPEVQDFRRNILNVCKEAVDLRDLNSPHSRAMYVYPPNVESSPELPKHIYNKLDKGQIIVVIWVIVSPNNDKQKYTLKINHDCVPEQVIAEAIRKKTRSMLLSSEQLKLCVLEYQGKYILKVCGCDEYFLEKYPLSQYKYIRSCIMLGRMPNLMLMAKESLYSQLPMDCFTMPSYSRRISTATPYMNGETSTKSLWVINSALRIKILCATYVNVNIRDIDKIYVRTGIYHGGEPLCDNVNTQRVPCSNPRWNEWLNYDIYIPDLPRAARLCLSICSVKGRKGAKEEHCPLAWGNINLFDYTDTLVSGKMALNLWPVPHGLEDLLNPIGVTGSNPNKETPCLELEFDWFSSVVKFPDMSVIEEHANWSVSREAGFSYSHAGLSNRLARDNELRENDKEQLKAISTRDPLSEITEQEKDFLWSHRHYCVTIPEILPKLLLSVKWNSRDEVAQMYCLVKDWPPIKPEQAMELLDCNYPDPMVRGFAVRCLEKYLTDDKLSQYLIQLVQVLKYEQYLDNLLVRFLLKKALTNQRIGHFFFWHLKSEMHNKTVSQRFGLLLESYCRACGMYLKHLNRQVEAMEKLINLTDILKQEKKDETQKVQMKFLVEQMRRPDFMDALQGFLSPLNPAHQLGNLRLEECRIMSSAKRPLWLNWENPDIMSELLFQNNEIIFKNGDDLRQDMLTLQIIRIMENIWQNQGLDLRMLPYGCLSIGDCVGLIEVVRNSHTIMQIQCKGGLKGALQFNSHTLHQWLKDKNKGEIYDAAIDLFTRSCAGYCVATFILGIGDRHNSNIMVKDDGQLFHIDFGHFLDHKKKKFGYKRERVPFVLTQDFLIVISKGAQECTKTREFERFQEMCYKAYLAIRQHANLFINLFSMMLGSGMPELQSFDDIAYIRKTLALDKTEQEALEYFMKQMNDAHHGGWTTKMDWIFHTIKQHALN
Tyrosine-protein kinase JAK2 (Homo sapiens), sequence (O60674 whole entry): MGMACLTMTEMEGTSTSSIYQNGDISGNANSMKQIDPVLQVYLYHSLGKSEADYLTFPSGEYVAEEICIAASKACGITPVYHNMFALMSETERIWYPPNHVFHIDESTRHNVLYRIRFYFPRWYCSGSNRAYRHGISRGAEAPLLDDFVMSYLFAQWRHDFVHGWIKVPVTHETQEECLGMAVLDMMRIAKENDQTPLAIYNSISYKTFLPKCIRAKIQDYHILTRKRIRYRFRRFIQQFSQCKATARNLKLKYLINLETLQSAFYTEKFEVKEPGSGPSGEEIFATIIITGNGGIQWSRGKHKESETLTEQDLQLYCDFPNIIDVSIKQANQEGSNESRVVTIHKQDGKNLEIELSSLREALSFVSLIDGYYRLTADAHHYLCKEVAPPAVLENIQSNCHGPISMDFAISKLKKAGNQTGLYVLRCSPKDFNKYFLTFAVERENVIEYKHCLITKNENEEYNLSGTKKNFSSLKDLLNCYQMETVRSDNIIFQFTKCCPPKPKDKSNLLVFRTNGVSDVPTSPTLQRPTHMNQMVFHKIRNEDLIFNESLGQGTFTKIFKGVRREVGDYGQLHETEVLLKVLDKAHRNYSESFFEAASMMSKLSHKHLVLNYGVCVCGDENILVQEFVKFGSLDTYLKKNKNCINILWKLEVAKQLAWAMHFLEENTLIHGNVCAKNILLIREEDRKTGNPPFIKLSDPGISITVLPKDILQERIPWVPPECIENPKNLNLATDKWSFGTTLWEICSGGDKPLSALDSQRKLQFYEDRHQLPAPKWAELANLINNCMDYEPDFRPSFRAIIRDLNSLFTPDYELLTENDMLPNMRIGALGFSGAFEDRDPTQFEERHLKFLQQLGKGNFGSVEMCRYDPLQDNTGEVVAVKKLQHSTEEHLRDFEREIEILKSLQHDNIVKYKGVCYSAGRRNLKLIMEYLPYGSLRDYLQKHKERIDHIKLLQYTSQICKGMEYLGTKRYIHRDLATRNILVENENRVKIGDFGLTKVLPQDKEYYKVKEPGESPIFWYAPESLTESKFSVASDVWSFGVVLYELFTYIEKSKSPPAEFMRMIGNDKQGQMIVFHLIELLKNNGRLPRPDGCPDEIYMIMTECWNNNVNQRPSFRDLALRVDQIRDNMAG
BDNF/NT-3 growth factors receptor (Homo sapiens), sequence (Q16620 32-822 limits assumed): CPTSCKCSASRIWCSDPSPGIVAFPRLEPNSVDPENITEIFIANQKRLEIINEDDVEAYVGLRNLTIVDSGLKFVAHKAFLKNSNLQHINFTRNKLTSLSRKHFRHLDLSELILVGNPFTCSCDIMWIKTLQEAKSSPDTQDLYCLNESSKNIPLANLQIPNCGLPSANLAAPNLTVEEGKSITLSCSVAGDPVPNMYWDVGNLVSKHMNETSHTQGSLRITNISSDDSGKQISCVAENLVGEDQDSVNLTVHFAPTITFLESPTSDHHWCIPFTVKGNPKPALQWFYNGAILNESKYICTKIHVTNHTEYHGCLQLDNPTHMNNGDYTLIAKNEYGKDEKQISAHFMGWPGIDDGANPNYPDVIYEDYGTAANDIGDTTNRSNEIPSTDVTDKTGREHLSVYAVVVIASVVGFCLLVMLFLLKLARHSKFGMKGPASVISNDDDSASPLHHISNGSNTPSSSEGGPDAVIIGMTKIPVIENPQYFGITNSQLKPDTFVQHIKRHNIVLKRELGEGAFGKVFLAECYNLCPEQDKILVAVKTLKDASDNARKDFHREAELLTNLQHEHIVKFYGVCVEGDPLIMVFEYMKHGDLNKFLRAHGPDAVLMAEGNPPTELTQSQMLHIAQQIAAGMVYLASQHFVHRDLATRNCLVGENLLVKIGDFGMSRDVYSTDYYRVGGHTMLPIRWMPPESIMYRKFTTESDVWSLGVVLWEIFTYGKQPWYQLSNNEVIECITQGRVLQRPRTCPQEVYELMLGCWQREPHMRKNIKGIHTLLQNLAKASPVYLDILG
Angiopoietin-1 receptor (Homo sapiens), sequence (Q02763 whole entry): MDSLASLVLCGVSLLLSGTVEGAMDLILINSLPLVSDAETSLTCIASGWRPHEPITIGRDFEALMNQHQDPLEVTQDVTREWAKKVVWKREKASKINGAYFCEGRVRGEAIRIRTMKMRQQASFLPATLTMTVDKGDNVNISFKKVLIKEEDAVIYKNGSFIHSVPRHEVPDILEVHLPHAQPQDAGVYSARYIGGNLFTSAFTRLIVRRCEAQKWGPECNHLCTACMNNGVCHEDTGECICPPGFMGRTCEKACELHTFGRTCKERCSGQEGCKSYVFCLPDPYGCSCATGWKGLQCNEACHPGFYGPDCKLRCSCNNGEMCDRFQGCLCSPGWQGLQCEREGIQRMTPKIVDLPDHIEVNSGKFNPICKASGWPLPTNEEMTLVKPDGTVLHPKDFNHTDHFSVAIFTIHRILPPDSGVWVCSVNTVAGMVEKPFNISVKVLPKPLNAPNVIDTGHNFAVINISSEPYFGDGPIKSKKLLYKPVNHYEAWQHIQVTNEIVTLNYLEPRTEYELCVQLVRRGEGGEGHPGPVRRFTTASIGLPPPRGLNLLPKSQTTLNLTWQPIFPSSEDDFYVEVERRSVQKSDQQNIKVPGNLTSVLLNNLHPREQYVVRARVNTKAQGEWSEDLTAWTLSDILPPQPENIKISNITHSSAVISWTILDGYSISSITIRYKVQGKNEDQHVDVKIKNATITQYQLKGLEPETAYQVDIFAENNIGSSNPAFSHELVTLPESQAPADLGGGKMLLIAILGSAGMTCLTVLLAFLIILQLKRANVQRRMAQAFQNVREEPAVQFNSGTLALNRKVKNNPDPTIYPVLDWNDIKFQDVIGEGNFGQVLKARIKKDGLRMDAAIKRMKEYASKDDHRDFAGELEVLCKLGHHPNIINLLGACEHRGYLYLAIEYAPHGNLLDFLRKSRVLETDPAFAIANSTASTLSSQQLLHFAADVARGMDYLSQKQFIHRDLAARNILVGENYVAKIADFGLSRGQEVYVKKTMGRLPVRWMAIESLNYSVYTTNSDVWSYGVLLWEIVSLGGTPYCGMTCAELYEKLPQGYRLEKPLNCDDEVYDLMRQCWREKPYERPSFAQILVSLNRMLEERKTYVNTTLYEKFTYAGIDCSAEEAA
Tyrosine-protein kinase CSK (Homo sapiens), sequence (P41240 2-450 limits assumed): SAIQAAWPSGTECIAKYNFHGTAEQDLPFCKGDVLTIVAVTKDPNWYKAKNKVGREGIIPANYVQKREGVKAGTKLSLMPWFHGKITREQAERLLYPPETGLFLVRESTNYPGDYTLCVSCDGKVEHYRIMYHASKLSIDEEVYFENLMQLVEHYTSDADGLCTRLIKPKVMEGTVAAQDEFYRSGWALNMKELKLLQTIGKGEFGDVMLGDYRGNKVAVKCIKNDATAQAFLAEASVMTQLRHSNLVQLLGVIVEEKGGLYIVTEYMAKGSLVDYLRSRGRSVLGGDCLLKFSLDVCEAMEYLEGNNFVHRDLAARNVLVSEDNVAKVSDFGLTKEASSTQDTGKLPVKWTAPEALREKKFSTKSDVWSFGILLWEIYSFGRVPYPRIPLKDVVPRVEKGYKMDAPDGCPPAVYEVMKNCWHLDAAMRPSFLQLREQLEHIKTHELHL
Serine/threonine-protein kinase PAK 2 (Homo sapiens), sequence (Q13177 whole entry): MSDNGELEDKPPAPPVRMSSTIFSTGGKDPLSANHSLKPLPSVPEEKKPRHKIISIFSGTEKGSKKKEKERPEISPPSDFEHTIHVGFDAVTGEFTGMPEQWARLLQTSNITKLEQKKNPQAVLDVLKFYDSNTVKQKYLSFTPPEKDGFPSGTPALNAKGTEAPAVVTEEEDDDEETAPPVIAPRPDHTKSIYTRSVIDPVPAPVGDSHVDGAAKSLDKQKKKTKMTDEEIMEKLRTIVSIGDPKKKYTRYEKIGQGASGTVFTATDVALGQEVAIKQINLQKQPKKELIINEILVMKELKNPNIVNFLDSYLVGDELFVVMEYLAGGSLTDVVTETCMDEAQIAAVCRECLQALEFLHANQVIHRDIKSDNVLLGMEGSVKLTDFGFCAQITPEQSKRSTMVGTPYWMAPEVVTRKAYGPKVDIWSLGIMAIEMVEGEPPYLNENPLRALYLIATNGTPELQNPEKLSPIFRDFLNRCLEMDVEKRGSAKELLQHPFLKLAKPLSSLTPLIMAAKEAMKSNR

SMILES: c1ccc(CN2CCC(n3ncc4c(N5CCOCC5)nc(-c5ccc6ncccc6c5)nc43)CC2)cc1
IC50 [1]: 5950 nM

SMILES: O=c1[nH]c2ccc(-c3nc(N4CCOCC4)c4cnn(C5CCN(Cc6ccccc6)CC5)c4n3)cc2[nH]1
fold change (FC) [2]: > 20 | IC50 [1]: 190 nM

SMILES: c1ccc(CN2CCC(n3ncc4c(N5CCOCC5)nc(-c5cccc6cc[nH]c56)nc43)CC2)cc1
IC50 [1]: 380 nM

SMILES: Oc1cccc(-c2nc(N3CCOCC3)c3cnn(C4CCNCC4)c3n2)c1
IC50 [1]: 215 nM

SMILES: c1ccc(CN2CCC(n3ncc4c(N5CCOCC5)nc(-c5ccncc5)nc43)CC2)cc1
IC50 [1]: 7300 nM

SMILES: Oc1ccccc1-c1nc(N2CCOCC2)c2cnn(C3CCN(Cc4ccccc4)CC3)c2n1
IC50 [1]: 1260 nM

SMILES: c1ccc(CN2CCC(n3ncc4c(N5CCOCC5)nc(-c5ccc6cc[nH]c6c5)nc43)CC2)cc1
IC50 [1]: 230 nM

SMILES: c1ccc(CN2CCC(n3ncc4c(N5CCOCC5)nc(-c5cccnc5)nc43)CC2)cc1
IC50 [1]: 695 nM

SMILES: CO[C@H]1C[C@@H]2CC[C@@H](C)[C@@](O)(O2)C(=O)C(=O)N2CCCC[C@H]2C(=O)O[C@H]([C@H](C)C[C@@H]2CC[C@@H](O)[C@H](OC)C2)CC(=O)[C@H](C)/C=C(\C)[C@@H](O)[C@@H](OC)C(=O)[C@H](C)C[C@H](C)/C=C/C=C/C=C/1C
Activity [5]: inactive | Activity [7]: Active | Activity [10]: inactive | Activity [20]: Active

Further compounds by falling IC50 [1], results first:

IC50 [1]: 170 nM
SMILES: Oc1ccc(-c2nc(N3CCOCC3)c3cnn(C4CCN(Cc5ccccc5)CC4)c3n2)cc1

IC50 [1]: 170 nM
SMILES: c1cc2cc(-c3nc(N4CCOCC4)c4cnn(C5CCNCC5)c4n3)ccc2[nH]1

IC50 [1]: 145 nM
SMILES: c1ccc(CN2CCC(n3ncc4c(N5CCOCC5)nc(-c5cccc6[nH]ccc56)nc43)CC2)cc1

IC50 [1]: 130 nM
SMILES: c1ccc(CN2CCC(n3ncc4c(N5CCOCC5)nc(-c5cc6ccccc6[nH]5)nc43)CC2)cc1

IC50 [1]: 120 nM
SMILES: c1ccc(CN2CCC(n3ncc4c(N5CCOCC5)nc(-c5cnc6ccccc6c5)nc43)CC2)cc1

IC50 [1]: 88 nM
SMILES: c1ccc(CN2CCC(n3ncc4c(N5CCOCC5)nc(-c5ccc6[nH]ccc6c5)nc43)CC2)cc1

fold change (FC) [2]: > 10 | half-life [4]: 13 min | IC50 [1]: 78 nM
SMILES: Oc1cccc(-c2nc(N3CCOCC3)c3cnn(C4CCN(Cc5ccccc5)CC4)c3n2)c1

IC50 [1]: 49 nM
SMILES: CC(=O)N1CCC(n2ncc3c(N4CCOCC4)nc(-c4cccc(O)c4)nc32)CC1

IC50 [1]: 10 nM
SMILES: Oc1cccc(-c2nc(N3CCOCC3)c3cnn(C4CCN(Cc5cccnc5)CC4)c3n2)c1

Activity [5]: Dose-dependent effect | inhibition [6]: 50% | Activity [7]: Dose-dependent effect | Activity [8]: inactive | Activity [9]: inactive | IC50 [1]: 9 nM | Activity [10]: Dose-dependent effect | inhibition [11]: 50% | inhibition [12]: 50% | inhibition [13]: 50% | inhibition [14]: 50% | inhibition [15]: 50% | inhibition [16]: 50% | Activity [17]: Active | inhibition [18]: 50% | Activity [19]: Active | Activity [20]: Dose-dependent effect | inhibition [21]: 50% | Activity [22]: Active | inhibition [23]: 50% | inhibition [24]: 50% | Activity [25]: Dose-dependent effect | inhibition [26]: 50% | inhibition [27]: 50%
SMILES: c1cncc(CN2CCC(n3ncc4c(N5CCOCC5)nc(-c5ccc6[nH]ccc6c5)nc43)CC2)c1

fold change (FC) [2]: > 10 | IC50 [3]: 86 nM | IC50 [1]: 6 nM
SMILES: O=C(c1cccnc1)N1CCC(n2ncc3c(N4CCOCC4)nc(-c4cccc(O)c4)nc32)CC1

IC50 [3]: 50 nM | IC50 [1]: 4 nM
SMILES: O=C(c1ccccc1)N1CCC(n2ncc3c(N4CCOCC4)nc(-c4cccc(O)c4)nc32)CC1

IC50 [3]: 5870 nM | IC50 [1]: 4 nM
SMILES: O=C(c1cccnc1)N1CCC(n2ncc3c(N4CCOCC4)nc(-c4ccc5[nH]ccc5c4)nc32)CC1
